Data from patent US11186566B2, “Modulator of cystic fibrosis transmembrane conductance regulator, pharmaceutical compositions, methods of treatment, and process for making the modulator” (Vertex Pharmaceuticals Incorporated, priority 2016, dated 2021).

Target: F508del-CFTR (Homo sapiens (Human), UniProt P13569, DEL508-508)
Assay: Membrane potential optical (fluorescent voltage sensing dye, FLIPR III) HTS assay for F508del-CFTR modulators
Assay type: cell-based
Settings: F508del NIH 3T3 cells, assay 5A-A1; read-out: CFTRdF508 EC50
From the text: Membrane Potential Optical Methods for Assaying Properties of F508del-CFTR Modulators
The assay utilizes fluorescent voltage sensing dyes to measure changes in membrane potential using a fluorescent plate reader (e.g., FLIPR III, Molecular Devices, Inc.) as a readout for increase in functional F508del in NIH 3T3 cells.
5A-A1. Identification of F508Del-CFTR Modulators
To identify modulators of F508del, a fluorescence based HTS assay format was developed. This HTS assay utilizes fluorescent voltage sensing dyes to measure changes in membrane potential on the FLIPR III as a measurement for increase in gating (conductance) of F508del NIH 3T3 cells.
(in mM) NaCl 160, KCl 4.5, CaCl2 2, MgCl2 1, HEPES 10, pH 7.4 with NaOH, Glucose 10.
Chloride salts in Bath Solution #1 (above) are substituted with gluconate salts.
NIH3T3 mouse fibroblasts stably expressing F508del are used for optical measurements of membrane potential. The cells are maintained at 37° C. in 5% CO2 and 90% humidity in Dulbecco's modified Eagle's medium supplemented with 2 mM glutamine, 10% fetal bovine serum, 1×NEAA, β-ME, 1×pen/strep, and 25 mM HEPES in 175 cm^2 culture flasks. For all optical assays, the cells were seeded at 12,000 cells/well in 384-well matrigel-coated plates and cultured for 18-24 hrs at 37° C. for the potentiator assay. For the correction assays, the cells are cultured at 37° C. with and without compounds for 18-24 hours.

Chain of F508del-CFTR (P13569 other isoform, or with tags, fused parts or gaps del F508-F508): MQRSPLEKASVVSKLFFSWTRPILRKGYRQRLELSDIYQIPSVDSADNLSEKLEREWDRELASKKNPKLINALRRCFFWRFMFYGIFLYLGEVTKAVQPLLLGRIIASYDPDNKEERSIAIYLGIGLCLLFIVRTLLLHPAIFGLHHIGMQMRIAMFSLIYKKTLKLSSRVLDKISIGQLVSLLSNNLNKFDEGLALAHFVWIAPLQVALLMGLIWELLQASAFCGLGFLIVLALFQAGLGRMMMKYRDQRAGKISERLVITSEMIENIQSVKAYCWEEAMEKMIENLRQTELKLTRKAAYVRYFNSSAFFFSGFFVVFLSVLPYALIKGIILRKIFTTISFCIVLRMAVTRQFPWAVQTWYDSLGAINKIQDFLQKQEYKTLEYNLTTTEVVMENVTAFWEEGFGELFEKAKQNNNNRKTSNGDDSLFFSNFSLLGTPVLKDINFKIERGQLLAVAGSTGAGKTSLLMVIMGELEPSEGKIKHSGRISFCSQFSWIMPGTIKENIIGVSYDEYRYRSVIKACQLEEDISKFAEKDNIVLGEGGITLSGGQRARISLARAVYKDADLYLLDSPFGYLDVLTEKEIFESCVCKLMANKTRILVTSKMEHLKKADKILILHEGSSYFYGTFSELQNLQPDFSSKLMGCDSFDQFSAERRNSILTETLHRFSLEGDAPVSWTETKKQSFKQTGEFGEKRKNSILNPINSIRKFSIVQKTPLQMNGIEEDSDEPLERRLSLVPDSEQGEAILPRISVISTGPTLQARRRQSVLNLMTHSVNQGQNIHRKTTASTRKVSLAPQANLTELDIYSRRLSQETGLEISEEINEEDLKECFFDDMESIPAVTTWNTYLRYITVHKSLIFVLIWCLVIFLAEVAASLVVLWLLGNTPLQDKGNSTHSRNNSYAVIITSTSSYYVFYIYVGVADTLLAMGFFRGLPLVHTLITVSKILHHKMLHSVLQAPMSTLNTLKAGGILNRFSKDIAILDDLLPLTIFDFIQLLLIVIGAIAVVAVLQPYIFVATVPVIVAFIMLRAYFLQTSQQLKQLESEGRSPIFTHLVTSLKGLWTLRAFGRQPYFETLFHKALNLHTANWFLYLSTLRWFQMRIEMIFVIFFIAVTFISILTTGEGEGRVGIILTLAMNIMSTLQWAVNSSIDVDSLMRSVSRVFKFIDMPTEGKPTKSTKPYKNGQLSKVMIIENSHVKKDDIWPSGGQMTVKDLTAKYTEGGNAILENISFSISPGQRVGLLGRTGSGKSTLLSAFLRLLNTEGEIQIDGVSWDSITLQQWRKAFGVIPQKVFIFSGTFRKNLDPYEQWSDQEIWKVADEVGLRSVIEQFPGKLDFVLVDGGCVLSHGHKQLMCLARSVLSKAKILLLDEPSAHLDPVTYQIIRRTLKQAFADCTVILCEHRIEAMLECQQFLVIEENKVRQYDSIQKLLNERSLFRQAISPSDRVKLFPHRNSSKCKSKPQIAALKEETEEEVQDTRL

Row | SMILES | EC50
1 | C[C@@H]1CN(c2nc(-n3ccc(O[C@@H]4C[C@H]4C(F)(F)F)n3)ccc2C(=O)NS(=O)(=O)c2ccccc2)C(C)(C)C1 (racemic) [Compound 19, N-(Benzenesulfonyl)-6-[3-[(trans)-2-(trifluoromethyl)cyclopropoxy]pyrazol-1-yl]-2-[(4S)-2,2,4-trimethylpyrrolidin-1-yl]pyridine-3-carboxamide] | 100 to 1000 nM
2 | COc1cc(S(=O)(=O)NC(=O)c2ccc(-n3ccc(OCCC4(C(F)(F)F)CC4)n3)nc2N2C[C@@H](C)CC2(C)C)ccc1O [Compound 3, (S)—N-((4-Hydroxy-3-methoxyphenyl)sulfonyl)-6-(3-(2-(1-(trifluoromethyl)cyclopropyl)ethoxy)-1H-pyrazol-1-yl)-2-(2,2,4-trimethylpyrrolidin-1-yl)nicotinamide] | < 100 nM
3 | Cc1cc(C#N)ccc1S(=O)(=O)NC(=O)c1ccc(-n2ccc(OCC3(C(F)(F)F)CC3)n2)nc1N1C[C@@H](C)CC1(C)C [Compound 11, N-(4-Cyano-2-methyl-phenyl)sulfonyl-6-[3-[[1-(trifluoromethyl)cyclopropyl]methoxy]pyrazol-1-yl]-2-[(4S)-2,2,4-trimethylpyrrolidin-1-yl]pyridine-3-carboxamide] | 100 to 1000 nM
4 | COc1cc(C)ccc1S(=O)(=O)NC(=O)c1ccc(-n2ccc(OCC3(C(F)(F)F)CC3)n2)nc1N1C[C@@H](C)CC1(C)C [Compound 12, N-(2-Methoxy-4-methyl-phenyl)sulfonyl-6-[3-[[1-(trifluoromethyl)cyclopropyl]methoxy]pyrazol-1-yl]-2-[(4S)-2,2,4-trimethylpyrrolidin-1-yl]pyridine-3-carboxamide] | < 100 nM
5 | [2H]C([2H])([2H])[C@@H]1CN(c2nc(-n3ccc(OCCC4(C(F)(F)F)CC4)n3)ccc2C(=O)NS(=O)(=O)c2ccccc2)C(C)(C)C1([2H])[2H] [Compound 17, N-(Benzenesulfonyl)-2-[(4S)-3,3-dideuterio-2,2-dimethyl-4-(trideuteriomethyl)pyrrolidin-1-yl]-6-[3-[2-[1-(trifluoromethyl)cyclopropyl]ethoxy]pyrazol-1-yl]pyridine-3-carboxamide] | < 100 nM
6 | C[C@@H]1CN(c2nc(-n3ccc(OCC4(C(F)(F)F)CC4)n3)ccc2C(=O)NS(=O)(=O)c2cccc(C#N)c2)C(C)(C)C1 [Compound 25, N-(3-Cyanophenyl)sulfonyl-6-[3-[[1-(trifluoromethyl)cyclopropyl]methoxy]pyrazol-1-yl]-2-[(4S)-2,2,4-trimethylpyrrolidin-1-yl]pyridine-3-carboxamide] | < 100 nM
7 | C[C@@H]1CN(c2nc(-n3ccc(OCC4(C(F)(F)F)CC4)n3)ccc2C(=O)NS(=O)(=O)c2ccccc2C#N)C(C)(C)C1 [Compound 26, N-(2-Cyanophenyl)sulfonyl-6-[3-[[1-(trifluoromethyl)cyclopropyl]methoxy]pyrazol-1-yl]-2-[(4S)-2,2,4-trimethylpyrrolidin-1-yl]pyridine-3-carboxamide] | > 1000 nM
8 | C[C@@H]1CN(c2nc(-n3ccc(OCCC4(C(F)(F)F)CC4)n3)ccc2C(=O)NS(=O)(=O)c2ccccc2O)C(C)(C)C1 [Compound 34, N-(2-hydroxyphenyl)sulfonyl-6-[3-[2-[1-(trifluoromethyl)cyclopropyl]ethoxy]pyrazol-1-yl]-2-[(4S)-2,2,4-trimethylpyrrolidin-1-yl]pyridine-3-carboxamide] | < 100 nM
9 | C[C@@H]1CN(c2nc(-n3ccc(OCCC4(C(F)(F)F)CC4)n3)ccc2C(=O)NS(=O)(=O)c2cccc(O)c2)C(C)(C)C1 [Compound 35, N-(3-Hydroxyphenyl)sulfonyl-6-[3-[2-[1-(trifluoromethyl)cyclopropyl]ethoxy]pyrazol-1-yl]-2-[(4S)-2,2,4-trimethylpyrrolidin-1-yl]pyridine-3-carboxamide] | < 100 nM
10 | COc1ccc(S(=O)(=O)NC(=O)c2ccc(-n3ccc(OCC4(C(F)(F)F)CC4)n3)nc2N2C[C@@H](C)CC2(C)C)cc1 [Compound 54, N-(4-methoxyphenyl)sulfonyl-6-[3-[[l-(trifluoromethyl)cyclopropyl]methoxy]pyrazol-1-yl]-2-[(4S)-2,2,4-trimethylpyrrolidin-1-yl]pyridine-3-carboxamide] | < 100 nM
11 | CC1(C)CN(c2nc(-n3ccc(OCC4(C(F)(F)F)CC4)n3)ccc2C(=O)NS(=O)(=O)c2ccccc2)C(C)(C)C1 [Compound 56, N-(Benzenesulfonyl)-2-(2,2,4,4-tetramethylpyrrolidin-1-yl)-6-[3-[[1-(trifluoromethyl)cyclopropyl]methoxy]pyrazol-1-yl]pyridine-3-carboxamide] | 100 to 1000 nM

Results, then the compound that gave them:

Row | EC50 | SMILES
12 | 100 to 1000 nM | C[C@@H]1CN(c2nc(-n3ccc(O[C@@H]4C[C@@H]4C(F)(F)F)n3)ccc2C(=O)NS(=O)(=O)c2ccccc2)C(C)(C)C1 (racemic) [Compound 18, N-(Benzenesulfonyl)-6-[3-[(cis)-2-(trifluoromethyl)cyclopropoxy]pyrazol-1-yl]-2-[(4S)-2,2,4-trimethylpyrrolidin-1-yl]pyridine-3-carboxamide]
13 | < 100 nM | C[C@@H]1CN(c2nc(-n3ccc(OCC4(C(F)(F)F)CC4)n3)ccc2C(=O)NS(=N)(=O)c2ccccc2)C(C)(C)C1 (single isomer, unassigned) [Compound 46]
14 | 100 to 1000 nM | C[C@H]1CN(c2nc(-n3ccc(OCCC4(C(F)(F)F)CC4)n3)ccc2C(=O)NS(=O)(=O)c2ccccc2)C(C)(C)C1 [Compound 2, (R)—N-(Phenylsulfonyl)-6-(3-(2-(1-(trifluoromethyl)cyclopropyl)ethoxy)-1H-pyrazol-1-yl)-2-(2,2,4-trimethylpyrrolidin-1-yl)nicotinamide]
15 | < 100 nM | Cc1ccccc1S(=O)(=O)NC(=O)c1ccc(-n2ccc(OCC3C4(CC4)C34CC4)n2)nc1N1C[C@@H](C)CC1(C)C [Compound 8, 6-[3-(Dispiro[2.0.2^4.1^3]heptan-7-ylmethoxy)pyrazol-1-yl]-N-(o-tolylsulfonyl)-2-[(4S)-2,2,4-trimethylpyrrolidin-1-yl]pyridine-3-carboxamide]
16 | 100 to 1000 nM | CC1(C)CC(CO)CN1c1nc(-n2ccc(OCCC3(C(F)(F)F)CC3)n2)ccc1C(=O)NS(=O)(=O)c1ccccc1 (stereo not shown) [Compound 9, N-(Benzenesulfonyl)-2-[4-(hydroxymethyl)-2,2-dimethyl-pyrrolidin-1-yl]-6-[3-[2-[1-(trifluoromethyl)cyclopropyl]ethoxy]pyrazol-1-yl]pyridine-3-carboxamide]
17 | 100 to 1000 nM | C[C@@H]1CN(c2nc(-n3ccc(OCC4(C(F)(F)F)CC4)n3)ccc2C(=O)NS(=O)(=O)c2ccccc2O)C(C)(C)C1 [Compound 20, N-(2-Hydroxyphenyl)sulfonyl-6-[3-[[1-(trifluoromethyl)cyclopropyl]methoxy]pyrazol-1-yl]-2-[(4S)-2,2,4-trimethylpyrrolidin-1-yl]pyridine-3-carboxamide]
18 | < 100 nM | C[C@@H]1CN(c2nc(-n3ccc(OCC4(C(F)(F)F)CC4)n3)ccc2C(=O)NS(=O)(=O)c2cccc(O)c2)C(C)(C)C1 [Compound 21, N-(3-Hydroxyphenyl)sulfonyl-6-[3-[[1-(trifluoromethyl)cyclopropyl]methoxy]pyrazol-1-yl]-2-[(4S)-2,2,4-trimethylpyrrolidin-1-yl]pyridine-3-carboxamide]
19 | < 100 nM | [2H]C([2H])(Oc1ccn(-c2ccc(C(=O)NS(=O)(=O)c3ccccc3)c(N3C[C@@H](C)CC3(C)C)n2)n1)C1C(C)(C)C1(C)C [Compound 36, N-(Benzenesulfonyl)-6-[3-[dideuterio-(2,2,3,3-tetramethylcyclopropyl)methoxy]pyrazol-1-yl]-2-[(4S)-2,2,4-trimethylpyrrolidin-1-yl]pyridine-3-carboxamide]
20 | 100 to 1000 nM | C[C@@H]1CN(c2nc(-n3ccc(OCC(O)C4(C(F)(F)F)CC4)n3)ccc2C(=O)NS(=O)(=O)c2ccccc2)C(C)(C)C1 (stereo partly drawn) [Compound 38, N-(Benzenesulfonyl)-6-[3-[2-hydroxy-2-[1-(trifluoromethyl)cyclopropyl]ethoxy]pyrazol-1-yl]-2-[(4S)-2,2,4-trimethylpyrrolidin-1-yl]pyridine-3-carboxamide]
21 | 100 to 1000 nM | C[C@@H]1CN(c2nc(-n3ccc(OCC4(C(F)(F)F)CC4)n3)ccc2C(=O)NS(=N)(=O)c2ccccc2)C(C)(C)C1 (stereo partly drawn) [Compound 45, N-(amino(oxo)(phenyl)-λ^6-sulfaneylidene)-6-(3-((1-(trifluoromethyl)cyclopropyl)methoxy)-1H-pyrazol-1-yl)-2-((S)-2,2,4-trimethylpyrrolidin-1-yl)nicotinamide]
22 | > 1000 nM | C[C@@H]1CN(c2nc(-n3ccc(OC4CC4)n3)ccc2C(=O)NS(=O)(=O)c2ccccc2)C(C)(C)C1 [Compound 48, N-(Benzenesulfonyl)-6-[3-(cyclopropoxy)pyrazol-1-yl]-2-[(4S)-2,2,4-trimethylpyrrolidin-1-yl]pyridine-3-carboxamide]
23 | < 100 nM | C[C@@H]1CN(c2nc(-n3ccc(OCC4(C(F)(F)F)CC4)n3)ccc2C(=O)NS(=O)(=O)c2ccc(F)cc2)C(C)(C)C1 [Compound 52, N-(4-fluorophenyl)sulfonyl-6-[3-[[1-(trifluoromethyl)cyclopropyl]methoxy]pyrazol-1-yl]-2-[(4S)-2,2,4-trimethylpyrrolidin-1-yl]pyridine-3-carboxamide]

Same assay, conditions: Table 7, Compound 1 and metabolites; read-out: CFTRdF508 EC50

Row | EC50 | SMILES
24 | 90 nM | C[C@@H]1CN(c2nc(-n3ccc(OCCC4(C(F)(F)F)CC4)n3)ccc2C(=O)NS(=O)(=O)c2ccccc2O)C(C)(C)C1 [Compound 34, N-(2-hydroxyphenyl)sulfonyl-6-[3-[2-[1-(trifluoromethyl)cyclopropyl]ethoxy]pyrazol-1-yl]-2-[(4S)-2,2,4-trimethylpyrrolidin-1-yl]pyridine-3-carboxamide]
25 | 240 nM | C[C@@H]1CN(c2nc(-n3ccc(OCC(O)C4(C(F)(F)F)CC4)n3)ccc2C(=O)NS(=O)(=O)c2ccccc2)C(C)(C)C1 (stereo partly drawn) [Compound 38, N-(Benzenesulfonyl)-6-[3-[2-hydroxy-2-[1-(trifluoromethyl)cyclopropyl]ethoxy]pyrazol-1-yl]-2-[(4S)-2,2,4-trimethylpyrrolidin-1-yl]pyridine-3-carboxamide]
